Results reported in patent publication US11261186B2, “Biaryl derivative as GPR120 agonist” (LG CHEM, LTD., priority 2014, dated 2022).

biological target: T1, hGPR120 (Homo sapiens, UniProt Q5NUL3); assay: Measurement of Activity of GPR120 Agonist (Cell-Based Assay), Calcium 5 dye fluorescence; conditions: CHO-K1 cells expressing Ga16 and hGPR120
T1 construct: expressed in transfected cells; host or cells: CHO-K1
T1 sequence (Q5NUL3 1-361): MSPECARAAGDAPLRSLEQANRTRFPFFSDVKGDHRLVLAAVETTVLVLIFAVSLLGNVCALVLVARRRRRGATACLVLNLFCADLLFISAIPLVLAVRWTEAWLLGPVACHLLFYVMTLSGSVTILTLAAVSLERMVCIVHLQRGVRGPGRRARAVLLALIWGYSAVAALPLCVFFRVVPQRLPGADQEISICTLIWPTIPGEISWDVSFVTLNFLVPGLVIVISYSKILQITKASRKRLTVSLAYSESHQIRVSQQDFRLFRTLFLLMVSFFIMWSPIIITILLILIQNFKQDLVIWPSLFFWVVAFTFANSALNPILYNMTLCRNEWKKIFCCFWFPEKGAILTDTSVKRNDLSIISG
Summary of the method: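 CHO-K1 cells co-expressing Gα16 and hGPR120, plated 18 h, loaded 1 h at 37°C with Calcium 5 dye. Serially diluted agonists added at 0.5% DMSO final; fluorescence read at Ex 485/Em 525 nm and expressed as relative % of DMSO-only signal.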

Compound | EC50 [nM]
O=C(O)CCCOc1c(F)cc(-c2cccc(SC3CCC3)c2)cc1F [Example 409, 4-(3′-cyclobutylsulfanyl-3,5-difluoro-biphenyl-4-yloxy)-butyric acid] | < 200
CC(CCCC(=O)O)c1c(F)cc(-c2cccc(OC3CCC3)c2)cc1F (centres unmarked) [Example 410, 5-(3′-cyclobutoxy-3,5-difluoro-biphenyl-4-yl)-hexanoic acid] | < 200
CC(CCCC(=O)O)c1c(F)cc(-c2cc(F)cc(OC3CCC3)c2)cc1F (centres unmarked) [Example 411, 5-(5′-cyclobutoxy-3,5,3′-trifluoro-biphenyl-4-yl)-hexanoic acid] | < 200
COc1ccc(-c2cc(F)c(C(C)CCCC(=O)O)c(F)c2)cc1OCC1CC1 (centres unmarked) [Example 412, 5-(3′-cyclopropylmethoxy-3,5-difluoro-4′-methoxy-biphenyl-4-yl)-hexanoic acid] | < 200
CC(CCCC(=O)O)c1c(F)cc(-c2cccc(OCC3CC3)c2)cc1F (centres unmarked) [Example 413, 5-(3′-cyclopropylmethoxy-3,5-difluoro-biphenyl-4-yl)-hexanoic acid] | < 200
O=C(O)CCCC(F)(F)c1ccc(-c2cc(F)cc(OC3CCC3)c2)cc1 [Example 414, 5-(5′-cyclobutoxy-3′-fluoro-biphenyl-4-yl)-5,5-difluoro-pentanoic acid] | < 200
CC(CCCC(=O)O)c1c(F)cc(-c2ccc(Cl)c(OC3CCC3)n2)cc1F (centres unmarked) [Example 415, 5-[4-(5-chloro-6-cyclobutoxy-pyridin-2-yl)-2,6-difluoro-phenyl]-hexanoic acid] | < 200
O=C(O)CCCOc1c(F)cc(-c2cccc(S(=O)(=O)C3CCC3)c2)cc1F [Example 416, 4-(3′-cyclobutanesulfonyl-3,5-difluoro-biphenyl-4-yloxy)-butyric acid] | 200 to 2000
CN(Cc1cc(O)no1)c1ccc(-c2cccc(OC3CCC3)n2)cc1 [Example 417, 5-({[4-(6-cyclobutoxy-pyridin-2-yl)-phenyl]-methyl-amino}-methyl)-isoxazol-3-ol] | < 200
Cc1cc(-c2cc(F)c(C(C)CCCC(=O)O)c(F)c2)nc(OC2CCC2)n1 (centres unmarked) [Example 418, 5-[4-(2-cyclobutoxy-6-methyl-pyrimidin-4-yl)-2,6-difluoro-phenyl]-hexanoic acid] | < 200
Cc1cc(OC2CCC2)nc(-c2cc(F)c(C(C)CCCC(=O)O)c(F)c2)n1 (centres unmarked) [Example 419, 5-[4-(4-cyclobutoxy-6-methyl-pyrimidin-2-yl)-2,6-difluoro-phenyl]-hexanoic acid] | < 200
O=C(O)CCCOc1c(F)cc(-c2nccc(OC3CCC3)n2)cc1F [Example 420, 4-[4-(4-cyclobutoxy-pyrimidin-2-yl)-2,6-difluoro-phenoxy]-butyric acid] | < 200
O=C(O)CCCOc1c(F)cc(-c2ccnc(OC3CCC3)n2)cc1F [Example 421, 4-[4-(2-cyclobutoxy-pyrimidin-4-yl)-2,6-difluoro-phenoxy]-butyric acid] | < 200
O=C(O)CCCOc1c(F)cc(-c2nccc(OC3CCC3)n2)cc1Cl [Example 422, 4-[2-chloro-4-(4-cyclobutoxy-pyrimidin-2-yl)-6-fluoro-phenoxy]-butyric acid] | < 200
O=C(O)CCCOc1c(F)cc(-c2ccnc(OC3CCC3)n2)cc1Cl [Example 423, 4-[2-chloro-4-(2-cyclobutoxy-pyrimidin-4-yl)-6-fluoro-phenoxy]-butyric acid] | < 200
O=C(O)CCCOc1c(F)cc(-c2cc(OC3CCC3)cc(Cl)n2)cc1Cl [Example 424, 4-[2-chloro-4-(6-chloro-4-cyclobutoxy-pyridin-2-yl)-6-fluoro-phenoxy]-butyric acid] | < 200
Cc1cc(OC2CCC2)nc(-c2cc(F)c(OCCCC(=O)O)c(F)c2)n1 [Example 425, 4-[4-(4-cyclobutoxy-6-methyl-pyrimidin-2-yl)-2,6-difluoro-phenoxy]-butyric acid] | < 200
O=C(O)CCCOc1c(F)cc(-c2csc(OC3CCC3)n2)cc1Cl [Example 426, 4-[2-chloro-4-(2-cyclobutoxy-thiazol-4-yl)-6-fluoro-phenoxy]-butyric acid] | < 200
O=C(O)CCCOc1c(F)cc(-c2csc(OCC3CC3)n2)cc1Cl [Example 427, 4-[2-chloro-4-(2-cyclopropylmethoxy-thiazol-4-yl)-6-fluoro-phenoxy]-butyric acid] | < 200
O=C(O)CCCOc1c(F)cc(-c2nccc(OCC3CC3)n2)cc1Cl [Example 428, 4-[2-chloro-4-(4-cyclopropylmethoxy-pyrimidin-2-yl)-6-fluoro-phenoxy]-butyric acid] | < 200
Cc1cc(OC2CCC2)nc(-c2cc(F)c(OCCCC(=O)O)c(Cl)c2)c1 [Example 429, 4-[2-chloro-4-(6-cyclobutoxy-4-methyl-pyridin-2-yl)-6-fluoro-phenoxy]-butyric acid] | < 200

Compound | EC50 [nM]
O=C(O)CCCOc1c(F)cc(-c2cncc(OC3CCC3)n2)cc1Cl [Example 430, 4-[2-chloro-4-(6-cyclobutoxy-pyrazin-2-yl)-6-fluoro-phenoxy]-butyric acid] | < 200
O=C(O)CCCOc1c(F)cc(-c2cncc(OCC3CC3)n2)cc1Cl [Example 431, 4-[2-chloro-4-(6-cyclopropylmethoxy-pyrazin-2-yl)-6-fluoro-phenoxy]-butyric acid] | < 200
Cc1cc(OCC2CC2)nc(-c2cc(F)c(OCCCC(=O)O)c(F)c2)n1 [Example 432, 4-[4-(4-cyclopropylmethoxy-6-methyl-pyrimidin-2-yl)-2,6-difluoro-phenoxy]-butyric acid] | < 200
O=C(O)CCCOc1c(F)cc(-c2nccc(OCC3CC3)n2)cc1F [Example 433, 4-[4-(4-cyclopropylmethoxy-pyrimidin-2-yl)-2,6-difluoro-phenoxy]-butyric acid] | < 200
O=C(O)CCCOc1c(F)cc(-c2cncc(OCC3CC3)n2)cc1F [Example 434, 4-[4-(6-cyclopropylmethoxy-pyrazin-2-yl)-2,6-difluoro-phenoxy]-butyric acid] | < 200
Cc1cc(OCC2CC2)nc(-c2cc(F)c(OCCCC(=O)O)c(Cl)c2)c1 [Example 435, 4-[2-chloro-4-(6-cyclopropylmethoxy-4-methyl-pyridin-2-yl)-6-fluoro-phenoxy]-butyric acid] | < 200
CC(C)Oc1cncc(-c2cc(F)c(OCCCC(=O)O)c(Cl)c2)n1 [Example 436, 4-[2-chloro-6-fluoro-4-(6-isopropoxy-pyrazin-2-yl)-phenoxy]-butyric acid] | < 200
CCOc1cncc(-c2cc(F)c(OCCCC(=O)O)c(Cl)c2)n1 [Example 437, 4-[2-chloro-4-(6-ethoxy-pyrazin-2-yl)-6-fluoro-phenoxy]-butyric acid] | < 200
O=C(O)C[C@H]1CCN(c2c(F)cc(-c3cccc(OCC4CC4)n3)cc2F)C1 [Example 438, {(R)-1-[4-(6-cyclopropylmethoxy-pyridin-2-yl)-2,6-difluoro-phenyl]-pyrrolidin-3-yl}-acetic acid] | < 200
O=C(O)CC1CCN(c2c(F)cc(-c3cccc4c3OC(F)(F)O4)cc2F)CC1 [Example 439, {1-[4-(2,2-difluoro-benzo[1,3]dioxol-4-yl)-2,6-difluoro-phenyl]-piperidin-4-yl}-acetic acid] | 200 to 2000
CC(C)Sc1ncccc1-c1cc(F)c2c(c1)CCC(CCC(=O)O)S2 (centres unmarked) [Example 440, 3-[8-fluoro-6-(2-isopropylsulfanyl-3-pyridyl)thiochroman-2-yl]propanoic acid] | 200 to 2000
O=C(O)CCC1CCc2cc(-c3cccc(OC4CCC4)n3)ccc2S1 (centres unmarked) [Example 441, 3-[6-[6-(cyclobutoxy)-2-pyridyl]thiochroman-2-yl]propanoic acid] | < 200
COc1ccc(-c2cc(F)c(C3CC3CCC(=O)O)c(F)c2)c2c1OC(C)(C)C2 (centres unmarked) [Example 442, 3-[2-[2,6-difluoro-4-(7-methoxy-2,2-dimethyl-3H-benzofuran-4-yl)phenyl]cyclopropyl]propanoic acid] | 200 to 2000
O=C(O)CCC1CC1c1c(F)cc(-c2cccc3c2OC2(CCCC2)C3)cc1F (centres unmarked) [Example 443, 3-[2-(2,6-difluoro-4-spiro[3H-benzofuran-2,1′-cyclopentan]-7-yl-phenyl)cyclopropyl]propanoic acid] | 200 to 2000
O=C(O)CCC1CCc2cc(-c3cccc(OC4CCC4)n3)ccc2O1 (centres unmarked) [Example 444, 3-[6-[6-(cyclobutoxy)-2-pyridyl]chroman-2-yl]propanoic acid] | < 200
O=C(O)CCC1CCc2cc(-c3cccc(OCC4CC4)n3)ccc2O1 (centres unmarked) [Example 445, 3-[6-[6-(cyclopropylmethoxy)-2-pyridyl]chroman-2-yl]propanoic acid] | < 200
COc1cccc(-c2cc(F)c(OCCCC(=O)O)c(F)c2)c1OC [Example 446, 4-[4-(2,3-dimethoxyphenyl)-2,6-difluoro-phenoxy]butanoic acid] | 200 to 2000
O=C(O)CCC1CCc2cc(-c3cccc(OCC4CC4)c3)ccc2O1 (centres unmarked) [Example 447, 3-[6-[3-(cyclopropylmethoxy)phenyl]chroman-2-yl]propanoic acid] | < 200
O=C(O)CCC1CCc2cc(-c3cccc(OC4CCCC4)c3)ccc2O1 (centres unmarked) [Example 448, 3-[6-[3-(cyclopentoxy)phenyl]chroman-2-yl]propanoic acid] | < 200
CN(CCCC(=O)O)c1c(F)cc(-c2cccc3c2OC2(CCCC2)O3)cc1F [Example 449, 4-(2,6-difluoro-N-methyl-4-spiro[1,3-benzodioxol-2,1′-cyclopentan]-4-yl-anilino)butanoic acid] | < 200
